Reference: US8999956B2, “N-[(het)arylalkyl)] pyrazole(thio)carboxamides and their heterosubstituted analogues” (Bayer Intellectual Property GmbH, priority 2010, dated 2015)
Where two headings read alike, the source gives them in different places.

What was measured:
Pyrenophora teres = experiment: In vivo preventive test on Pyrenophora teres (barley); details: 500 ppm of active ingredient, evaluated 7-9 days after inoculation
Procedure, shortened: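 Preventive test: young barley plants received a water-diluted spray of compound formulated with DMF solvent plus alkylaryl polyglycol ether emulsifier, at the stated rate. Inoculation with an aqueous spore suspension of Pyrenophora teres followed one day after spraying.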

Alternaria solani = experiment: In vivo preventive test on Alternaria solani (tomato); details: 500 ppm of active ingredient, evaluated 7 days after inoculation
Procedure, shortened: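 Preventive set-up: Alternaria solani spores, as aqueous suspension, applied to young plants one day after spraying. Spray contained active compound formulated with N,N-dimethylformamide and emulsifier, water-diluted to the desired application rate.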

Botrytis cinerea = experiment: In vivo preventive test on Botrytis cinerea (beans); details: Table L, 500 ppm of active ingredient, lesion size 2 days after inoculation
Experimental: Solvent: 24.5 parts by weight of acetone • 24.5 parts by weight of N,N-dimethylacetamide
Emulsifier: 1 part by weight of alkylaryl polyglycol ether
To produce a suitable preparation of active compound, 1 part by weight of active compound is mixed with the stated amounts of solvent and emulsifier, and the concentrate is diluted with water to the desired concentration.
To test for preventive activity, young plants are sprayed with the preparation of active compound. After the spray coating has dried on, 2 small pieces of agar covered with growth of Botrytis cinerea are placed on each leaf. The inoculated plants are placed in a darkened chamber at 20° C. and a relative atmospheric humidity of 100%.
2 days after the inoculation, the size of the lesions on the leaves is evaluated. 0% means an efficacy which corresponds to that of the untreated control, while an efficacy of 100% means that no disease is observed.

Venturia inaequalis = experiment: In vivo preventive test on Venturia inaequalis (apple scab); details: 100 ppm of active ingredient, evaluated 10 days after inoculation
Experimental: (§1) Solvent: 24.5 parts by weight of acetone • 24.5 parts by weight of N,N-dimethylacetamide Emulsifier: 1 part by weight of alkylaryl polyglycol ether To produce a suitable preparation of active compound, 1 part by weight of active compound is mixed with the stated amounts of solvent and emulsifier, and the concentrate is diluted with water to the desired concentration. To test for preventive activity, young plants are sprayed with the preparation of active compound at the stated rate of application.

Uromyces appendiculatus = experiment: In vivo preventive test on Uromyces appendiculatus (beans); details: 100 ppm of active ingredient, evaluated 10 days after inoculation
Experimental: as §1

Aspergillus parasiticus = experiment: microbe, parasite or virus in culture; assay type: cell-based
Puccinia triticina = experiment: In vivo preventive test on Puccinia triticina (wheat); details: Table K, 500 ppm of active ingredient, evaluated 8 days after inoculation
[1] = log P by HPLC on reversed-phase column (EEC Directive 79/831 Annex V.A8); assay type: physicochemical
Experimental: In table 1, the log P values were determined in accordance with EEC Directive 79/831 Annex V.A8 by HPLC (High Performance Liquid Chromatography) on a reversed-phase column (C18), using the method described below: Temperature: 40° C.; […]

Leptosphaeria nodorum = experiment: In vivo preventive test on Leptosphaeria nodorum (wheat); details: 500 ppm of active ingredient, evaluated 7-9 days after inoculation
Experimental: as §1, with “Solvent: 49 parts by” for “Solvent: 24.5 parts by weight of acetone • 24.5 parts by”, “sprayed with a preparation of” for “sprayed with the preparation of”, “of application. One day after this treatment, the plants are inoculated with an aqueous spore suspension of Leptosphaeria nodorum.” for “of application.”

[2] = tested on: aflatoxines produced by Aspergillus parasiticus; experiment: microbe, parasite or virus in culture; assay type: cell-based
Sphaerotheca fuliginea = experiment: In vivo preventive test on Sphaerotheca fuliginea (cucumber); details: 500 ppm of active ingredient, evaluated 7 days after inoculation
Procedure, shortened: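 Young cucumber plants sprayed with compound (in DMF with alkylarylpolyglycolether emulsifier, diluted in water) at the stated application rate. Inoculated one day later with aqueous Sphaerotheca fuliginea spore suspension. Plants then held in greenhouse at approximately 23° C and approximately 70% relative humidity.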

[3] = tested on: Blumeria graminis fsp. hordei; experiment: In vivo preventive test on Blumeria graminis (barley); details: 500 ppm of active ingredient, evaluated 7 days after inoculation
Experimental: (§2) Solvent: 49 parts by weight of N,N-dimethylacetamide Emulsifier: 1 part by weight of alkylaryl polyglycol ether To produce a suitable preparation of active compound, 1 part by weight of active compound or active compound combination is mixed with the stated amounts of solvent and emulsifier, and the concentrate is diluted with water to the desired concentration. To test for preventive activity, young plants are sprayed with the preparation of active compound or active compound combination at the stated rate of application. After the spray coating has been dried, the plants are dusted with spores of Blumeria graminis fsp. hordei.

[4] = tested on: Fusarium nivale (var. majus); experiment: In vivo preventive test on Fusarium nivale (wheat); details: 500 ppm of active ingredient, evaluated 5 days after inoculation
Experimental: as §2, with “slightly injured by using a sandblast and afterwards they are sprayed” for “dusted”, “a conidia suspension” for “spores”, “Fusarium nivale (var. majus).” for “Blumeria graminis fsp. hordei.”

Septoria tritici = experiment: In vivo preventive test on Septoria tritici (wheat); details: 500 ppm of active ingredient, evaluated 21 days after inoculation
Experimental: as §2, with “sprayed” for “dusted”, “a spore suspension” for “spores”, “Septoria tritici.” for “Blumeria graminis fsp. hordei.”

Row | SMILES | Efficacy (Pyrenophora teres) [%] | Efficacy (Alternaria solani) [%] | Efficacy (Venturia inaequalis) [%] | Efficacy (Uromyces appendiculatus) [%] | Efficacy (Puccinia triticina) [%] | logP [1] | Efficacy (Sphaerotheca fuliginea) [%] | % Inhibition of Aflatoxin at 50 μM [2] [%] | Efficacy [3] [%] | Efficacy [4] [%] | Efficacy (Septoria tritici) [%] | also measured
1 | Cn1nc(C(F)F)c(C(=O)NCC2CCCC(C(F)(F)F)C2)c1Cl (mixture of isomers) [Example 378] | 100 | 100 | 100 | 100 |  |  |  |  |  |  |  | Efficacy (Botrytis cinerea): 96%
2 | CC(C)CC(C)C1CCCC1NC(=O)c1c(C(F)F)nn(C)c1Cl (single isomer, unassigned) [Example 312] | 100 | 95 | 99 | 100 | 100 | 4.40 isomer A | 90 |  |  |  |  | % Inhibition of fungal growth at 50 μM (Aspergillus parasiticus; 50 µM): 99%; Efficacy (Leptosphaeria nodorum): 95%; % Inhibition of Aflatoxin at 50 μM ([2]; 50 µM): 100%
3 | CC(C)CC(C)C1CCCC1NC(=O)c1c(C(F)F)nn(C)c1F (single isomer, unassigned) [Example 316] | 100 | 90 | 100 | 100 | 100 | 4.19 isomer A | 98 | 100 |  |  |  | % Inhibition of fungal growth at 50 μM (Aspergillus parasiticus; 50 µM): 100%; Efficacy (Leptosphaeria nodorum): 80%
4 | CC(C)CC(C)C1CCCCC1NC(=O)c1c(C(F)F)nn(C)c1Cl (single isomer, unassigned) [Example 335] |  |  | 100 | 100 | 100 | 4.96 isomer B |  | 100 | 70 | 86 |  | % Inhibition of fungal growth at 50 μM (Aspergillus parasiticus; 50 µM): 84%
5 | CC(C)CC(C)C1CCCCC1NC(=O)c1c(C(F)F)nn(C)c1F (single isomer, unassigned) [Example 337] | 100 | 100 | 74 | 86 | 70 | 4.47 isomer A | 100 |  |  |  | 78 | Efficacy (Botrytis cinerea): 93%
6 | CCCC1CCCCC1NC(=O)c1c(C(F)F)nn(C)c1F (single isomer, unassigned) [Example 343] | 100 | 95 | 97 |  | 70 | 3.42 isomer A |  | 100 | 94 | 100 | 100 | % Inhibition of fungal growth at 50 μM (Aspergillus parasiticus; 50 µM): 87%
7 | Cn1nc(C(F)F)c(C(=O)NC2CCCCC2CCC(C)(C)C)c1Cl (single isomer, unassigned) [Example 354] |  |  | 100 | 100 | 100 | 4.73 isomer A |  |  | 100 | 100 |  | 
8 | Cn1nc(C(F)F)c(C(=O)NC2CCCCC2CCC(C)(C)C)c1Cl (single isomer, unassigned) [Example 355] |  |  | 99 | 100 |  | 4.95 isomer B |  |  | 80 | 100 |  | 
9 | CC(N(C(=O)c1c(C(F)F)nn(C)c1F)C1CC1)C(C)(C)Cc1ccc(Cl)cc1Cl (stereo not drawn) [Example 181] | 100 | 100 | 100 | 78 |  | 5.14 | 100 |  | 100 |  | 100 | Efficacy (Leptosphaeria nodorum): 95%
10 | CC(CCc1c(Cl)cc(Cl)cc1Cl)N(C(=O)c1c(C(F)F)nn(C)c1F)C1CC1 (stereo not drawn) [Example 213] | 100 | 100 |  |  | 90 | 5.14 | 99 | 100 | 100 | 93 | 93 | % Inhibition of fungal growth at 50 μM (Aspergillus parasiticus): 100%; Efficacy (Botrytis cinerea): 86%; Efficacy (Leptosphaeria nodorum): 95%
11 | CON(C(=O)c1c(C(F)F)nn(C)c1Cl)C(C)CCc1c(Cl)cc(Cl)cc1Cl (stereo not drawn) [Example 218] | 100 | 90 | 100 | 95 |  | 4.89 |  |  |  | 100 | 86 | 
12 | Cn1nc(C(F)F)c(C(=O)NC2CCCC2CCC(C)(C)C)c1F (stereo not drawn) [Example 319, 3-(difluoromethyl)-N-[2-(3,3-dimethylbutyl)cyclopentyl]-5-fluoro-1-methyl-1H-pyrazole-4-carboxamide] | 100 | 100 |  |  |  |  | 100 |  | 100 | 100 | 100 | inhibition at 50 µM (Aspergillus parasiticus; Aspergillus parasiticus, 168 h, read-out: % Inhibition of fungal growth at 50 μM): 89%; pest or weed control at 500 ppm (Puccinia triticina; Puccinia triticina, 192 h, read-out: Efficacy): 80%; chromatographic logP ([1]; log P (isomer A)): 4.22; chromatographic logP ([1]; log P (isomer B)): 4.28; chromatographic logP ([1]; logP): 4.22; Efficacy (Botrytis cinerea): 73%; inhibition at 50 µM ([2]; Aspergillus parasiticus, 168 h, read-out: % Inhibition of Aflatoxin at 50 μM): 100%
13 | CCCCCCC1CCCCC1NC(=O)c1c(C(F)F)nn(C)c1F (stereo not drawn) [Example 326] |  |  |  |  | 100 | 5.07 |  |  |  | 92 | 78 | 
14 | CCCCC1CCCCC1NC(=O)c1c(C(F)F)nn(C)c1Cl (stereo not drawn) [Example 331] | 95 | 100 | 100 | 100 | 90 | 4.10 | 100 | 99 | 100 | 100 | 100 | % Inhibition of fungal growth at 50 μM (Aspergillus parasiticus): 79%
15 | CC(CC(C)(C)C)C1CCCCC1NC(=O)c1c(C(F)F)nn(C)c1Cl (stereo not drawn) [Example 359] | 100 | 95 | 99 | 100 | 100 | 5.28 | 100 | 100 | 94 | 100 | 100 | % Inhibition of fungal growth at 50 μM (Aspergillus parasiticus): 90%
